The values below come from patent US5492892A, “Endothelin antagonists” (priority 1994, dated 1996).

For test [1] the following is noted: literature reports; cited from earlier work.
The target of test [2] is endothelin receptors of the isolated, perfused guinea pig lung.
Test [3] concerns isolated, perfused guinea pig lung. Kind of test: Vasoconstrictor (agonist) activity, isolated perfused lung preparation, pulmonary artery pressure. As for the experimental part:
Isolated, Perfused Guinea Pig Lung: Another procedure for determining the vasoconstrictor action of the endothelin-active peptides and the blocking action of endothelin antagonists utilizes isolated, perfused guinea pig lung as described in more detail in Example 4, infra.
(§1) The vasoconstrictor activity of Et-1 or Et-3 alone, or in the presence of antagonist, was determined using an isolated, perfused lung preparation (Horgan, M. J., et al. J. Appl. Phsysiol., 63, 93-104 (1987)). Briefly, Hartley guinea pigs (400-500 g) of either sex were anesthetized with 50 mg/kg pentobarbital sodium. Following a tracheotomy, the thorax was opened, the lung and heart excised and the pulmonary artery cannulated. A wide cannula was placed in the left atrium. Perfusion was then started, within 5 min. of opening the thorax. The perfusion flow was set at 28 ml/min. When there was no visible sign of blood in the pulmonary venous effluent, recirculation of the perfusate was started, and pulmonary artery pressure was monitored. Endothelin activity was measured in an accumulative dose-dependent manner for agonist activity by addition of the peptides to a recirculating 300 ml bath. To assess antagonist activity, dose response curves with endothelin were done in the constant presence of antagonist.

A further test has as its system vascular beds. The conditions noted are these: a number of vascular beds; Anggard et al.; cited from earlier work.
In a further test the test system is Et-1 receptor. The note with it: competitive and dose dependent manner; Fabregat et al.; cited from earlier work.
The subject of another test is endothelin responses. The conditions noted are these: Fabregat et al.; cited from earlier work.
The subject of test [4] is norepinephrine in perfused guinea pig lung. Kind of test: Specificity: lung preparations perfused with norepinephrine, with and without antagonist. The note with it: Norepinephrine (10^-7 M); 5 minute preperfusion with 10^-7 M antagonist. As for the experimental part: as §1
(§2) Specificity of [drawing 47] is illustrated in Table 2 which presents pressure increase data in similar lung preparations perfused with Et-3 and with other vasoconstrictor substances (alpha-thrombin and norepinephrine). As for the results shown in Table 1, pressure increase was determined on lung preparations with and without a 5 minute preperfusion step with 10^-7 M [drawing 48]

In test [5] the test system is alpha-thrombin in perfused guinea pig lung. Kind of test: Specificity: lung preparations perfused with alpha-thrombin, with and without antagonist. The note with it: α-Thrombin (10^-8 M); 5 minute preperfusion with 10^-7 M antagonist. As for the experimental part:
as §1, §2

Test [6] concerns Et-3 in perfused guinea pig lung. Kind of test: Specificity: lung preparations perfused with Et-3, with and without antagonist. Here is the method: as §1, §2
In test [7] the test system is Et-1 in Perfused Guinea Pig Lung. Kind of test: Antagonist activity against Et-1 in perfused guinea pig lung. The note with it: for Pressure Increase Inhibition / Pressure Increase Ppa With Antagonist: antagonist 10^-7 M; for Pressure Increase Ppa With Antagonist: preperfused 5 min then coperfused. As for the experimental part:
as §1
The response with lungs preperfused, for 5 min. with [drawing 44] at a concentration of 10^-7 M before coperfusion with Et-1 was compared with the response determined on lungs perfused only with Et-1. (Results in both Tables 1 and 2 are based on the average of 4-7 determinations for each result).

For test [8], the target named is endothelin receptors of the isolated, perfused guinea pig lung. This is another data set of the same source.
Setting [9] is: isolated, perfused guinea pig lung.

Bridge positions count the residues as written; N and C are the ends. Ends that are not written are not given here.

On to “[Asn^8 ]Et-1: known Et-1 analog (Nakajima et al.) (CSCSSLMNKECVYFCHLDIIW; ends and bridges not checked; cysteine pairing not given here; UniProt P05305 53-73, looked up, variant D8N)”, for which, in test [1], the endothelin activity result is “show appreciable endothelin activity”.

With “[Ala^4 ]Et-1: known Et-1 analog (Nakajima et al.) (CSCASLMDKECVYFCHLDIIW; ends and bridges not checked; cysteine pairing not given here; UniProt P05305 53-73, looked up, variant S4A)”, in test [1], the endothelin activity result is “show appreciable endothelin activity”.

Take “[Leu^9 ]Et-1: known Et-1 analog (Nakajima et al.) (CSCSSLMDLECVYFCHLDIIW; ends and bridges not checked; cysteine pairing not given here; UniProt P05305 53-73, looked up, variant K9L)”: the endothelin activity entry in [1] is recorded as “show appreciable endothelin activity”.

As to [Dpr^1 -Asp^15 ]Et-1 (peptide), in test [2], the Pressure Increase Inhibition (%) of the Et-1 response, lung preperfused and coperfused with 10^-7 M antagonist was found to be 95%.

With “[Tyr^21 ]Et-1: known Et-1 analog (Nakajima et al.) (CSCSSLMDKECVYFCHLDIIY; ends and bridges not checked; cysteine pairing not given here; UniProt P05305 53-73, looked up, variant W21Y)”, the endothelin activity result in [1] was “show appreciable endothelin activity”.

`CC[C@H](C)[C@H](NC(=O)[C@H](CC(=O)O)NC(=O)[C@H](CC(C)C)NC(=O)[C@H](Cc1c[nH]cn1)NC(=O)[C@@H]1CSSC[C@H](N)C(=O)N[C@@H](CO)C(=O)N[C@H]2CSSC[C@H](NC(=O)[C@H](CCC(=O)O)NC(=O)[C@H](CCCCN)NC(=O)[C@H](CC(=O)O)NC(=O)[C@H](CCSC)NC(=O)[C@H](CC(C)C)NC(=O)[C@H](CO)NC(=O)[C@H](CO)NC2=O)C(=O)N[C@@H](C(C)C)C(=O)N[C@@H](Cc2ccc(O)cc2)C(=O)N[C@@H](Cc2ccccc2)C(=O)N1)C(=O)N[C@H](C(=O)N[C@@H](Cc1c[nH]c2ccccc12)C(=O)O)[C@@H](C)CC` [Et-1]: the entries for the “Pressure Increase Ppa Without Antagonist” value in test [3] (Et-1 Conc. 2 × 10^-10 M), in [3] (Et-1 Conc. 10^-9 M) and in test [3] (Et-1 Conc. 10^-10 M) were 2.3 cm H2 O, 6.1 cm H2 O and 1.2 cm H2 O, respectively. The “concentration at which Et-1 is active (dose-dependent increase in pulmonary artery pressure, Ppa)” value in test [3] (setting [9]) is given as 10^-10 M. In addition, the “concentration giving a maximal response (increase in Ppa)” value in test [3] (setting [9]) was 10^-8 M. Further, the “apparent potency order of vasoconstriction” value in the test with vascular beds was “Et-2>Et-1>Et-3”.

Consider “[Ala^5 ]Et-1: known Et-1 analog (Nakajima et al.)”, for which the endothelin activity entry in test [1] is “show appreciable endothelin activity”.

Turning to “[Phe^13 ]Et-1: known Et-1 analog (Nakajima et al.) (CSCSSLMDKECVFFCHLDIIW; ends and bridges not checked; cysteine pairing not given here; UniProt P05305 53-73, looked up, variant Y13F)”, the endothelin activity result in [1] is reported as “show appreciable endothelin activity”.

Turning to “[D-Arg^1, D-Phe^5, D-Trp^7,9, Leu^11 ] substance P”, the “inhibition of ^125 I-labelled Et-1 binding to an Et-1 receptor” value in the test with Et-1 receptor is reported as “able to inhibit”. In addition, the “blocking of endothelin responses” value with endothelin responses is on record as “blocks certain endothelin responses”.

Regarding “[Ala^3,11 ]Et-1: known Et-1 analog (Randall et al.) (CSASSLMDKEAVYFCHLDIIW; ends and bridges not checked; cysteine pairing not given here; UniProt P05305 53-73, looked up, variant C3A C11A)”, the endothelin activity result in test [1] is recorded as “shows endothelin activity”.

As for `NC[C@H](O)c1ccc(O)c(O)c1` [Norepinephrine], the “Ppa Without antagonist” value in test [3] (Norepinephrine (10^-7 M)) was 1.3 cm H2 O.

As to “Et-2: endothelin isopeptide (CSCSSWLDKECVYFCHLDIIW; ends and bridges not checked; cysteine pairing not given here; UniProt P20800 49-69, looked up)”, the “apparent potency order of vasoconstriction” value in the test with vascular beds is recorded as “Et-2>Et-1>Et-3”.

For “[Phe^21 ]Et-1: known Et-1 analog (Nakajima et al.) (CSCSSLMDKECVYFCHLDIIF; ends and bridges not checked; cysteine pairing not given here; UniProt P05305 53-73, looked up, variant W21F)”, in test [1], the endothelin activity result is on record as “show appreciable endothelin activity”.

Take “[Gly^6 ]Et-1: known Et-1 analog (Nakajima et al.) (CSCSSGMDKECVYFCHLDIIW; ends and bridges not checked; cysteine pairing not given here; UniProt P05305 53-73, looked up, variant L6G)”: the endothelin activity entry in test [1] is listed as “show appreciable endothelin activity”.

Turning to [Dpr^1 -Asp^15 ]Et-1, the “agonist activity (increase in Ppa)” value in test [3] (doses as high as 1×10^-6 M) is listed as “essentially no agonist activity”. The “Ppa With antagonist” value in test [4] is listed as 1.3 cm H2 O; in test [5], 8.5 cm H2 O; in [6] (Et-3 (10^-9 M), 5 minute preperfusion with 10^-7 M antagonist), 5.8 cm H2 O. Moreover, the “antagonist activity against vasoconstricting substances other than Et-1” value in [6] (lung preparations treated with Et-3, α-thrombin or norepinephrine) is recorded as “no antagonist activity”. The “Pressure Increase Inhibition” value in [7] (Et-1 2 × 10^-10 M) is listed as 75%; in test [7] (Et-1 10^-9 M), 65%; in [7] (Et-1 10^-10 M), 95%. The “Pressure Increase Ppa With Antagonist” value is on record as 0.6 cm H2 O in test [7] (Et-1 2 × 10^-10 M), 2.1 cm H2 O in test [7] (Et-1 10^-9 M) and 0.06 cm H2 O in test [7] (Et-1 10^-10 M). Also, the “blocking activity at higher doses of the analog” value in test [7] (doses higher than 10^-7 M) is “did not substantially increase this blocking activity”.

B1: Endothelin 3 (peptide)
peptide: CTCFTYKDKECVYYCHLDIIW
modifications: disulfide 1-15, 3-11
As to B1, the Ppa (cm H2O), isolated perfused guinea pig lung, Et-3 at 10^-9 M without antagonist in [8] worked out at 3.8 cm H2O.
